Test results: ChEMBL document CHEMBL5634141 (Eur J Med Chem, 2023)
Activity calls are given as the source filed them. The calls are words filed in the database; no cut-off is given here.

How the values were obtained:
[1] = system: von Hippel-Lindau disease tumor suppressor/GTPase KRas (Homo sapiens), P01116+P40337 [G12C]; test: PROTAC activity at VHL/KRAS G12C mutant in human MIA PaCa-2 cells assessed as induction of protein degradation at 300 nM incubated for 6 hrs by Western blotting analysis relative to control; assay type: cell-based
[2] = system: NCI-H358; test: Induction of apoptosis in human NCI-H358 cells assessed as necrotic cells at 300 nM incubated for 48 hrs by Annexin V-FITC staining based flow cytometry analysis (reference value: 1.62 %); assay type: functional
[3] = system: MIA PaCa-2; test: Induction of apoptosis in human MIA PaCa-2 cells assessed as early apoptotic cells at 30 nM incubated for 48 hrs by Annexin V-FITC staining based flow cytometry analysis (reference value: 1.55 %); assay type: functional
[4] = system: SW837; test: Antiproliferative activity against human SW837 cells expressing KRAS G12C mutant assessed as relative cell viability at 30 nM incubated for 72 hrs in presence of selumetinib by CCK-8 assay; assay type: functional; conditions: read-out: Activity
[5] = system: NCI-H358; test: Synergistic antiproliferative activity against human NCI-H358 cells expressing KRAS G12C mutant assessed as combination index incubated for 72 hrs in presence of SHP099 by CCK-8 assay; assay type: functional
[6] = system: NCI-H358; test: Antiproliferative activity against human NCI-H358 cells expressing KRAS G12C mutant assessed as relative cell viability at 30 nM incubated for 72 hrs in presence of naporafenib by CCK-8 assay; assay type: functional; conditions: read-out: Activity
[7] = system: NCI-H358; test: Induction of apoptosis in human NCI-H358 cells assessed as early apoptotic cells at 30 nM incubated for 48 hrs by Annexin V-FITC staining based flow cytometry analysis (reference value: 1.60 %); assay type: functional
[8] = system: NCI-H358; test: Synergistic antiproliferative activity against human NCI-H358 cells expressing KRAS G12C mutant assessed as combination index at 30 nM incubated for 72 hrs in presence of crizotinib by CCK-8 assay; assay type: functional
[9] = Toxicity in BALB/c nude mouse xenografted with human MIA PaCa-2 cells assessed as change in body weight at 10 to 30 mg/kg, ip measured after 16 days; assay type: organism-based; conditions: in vivo, 384 h, dose 10-30 mg/kg, time 16 day
[10] = system: NCI-H358; test: Induction of apoptosis in human NCI-H358 cells assessed as viable cells at 100 nM incubated for 48 hrs by Annexin V-FITC staining based flow cytometry analysis (reference value: 91.6 %); assay type: functional; conditions: read-out: Activity
[11] = system: NCI-H358; test: Antiproliferative activity against human NCI-H358 cells expressing KRAS G12C mutant assessed as relative cell viability at 30 nM incubated for 72 hrs in presence of infigratinib by CCK-8 assay; assay type: functional; conditions: read-out: Activity
[12] = system: MIA PaCa-2; test: Antiproliferative activity against human MIA PaCa-2 cells expressing KRAS G12C mutant assessed as reduction of cell growth by measuring fold decrease in IC50 incubated for 72 hrs in presence of AZD4573 by CCK-8 assay; assay type: functional
[13] = system: NCI-H358; test: Synergistic antiproliferative activity against human NCI-H358 cells expressing KRAS G12C mutant assessed as combination index at 30 nM incubated for 72 hrs in presence of infigratinib by CCK-8 assay; assay type: functional
[14] = system: SW837; test: Antiproliferative activity against human SW837 cells expressing KRAS G12C mutant assessed as relative cell viability at 30 nM incubated for 72 hrs in presence of crizotinib by CCK-8 assay; assay type: functional; conditions: read-out: Activity
[15] = system: von Hippel-Lindau disease tumor suppressor/GTPase KRas (Homo sapiens), P01116+P40337 [G12C]; test: PROTAC activity at VHL/KRAS G12C mutant in human NCI-H358 cells assessed as induction of protein degradation at 100 nM preincubated with MG132 for 6 hrs followed by compound addition and measured after 48 hrs by Western blot analysis; assay type: cell-based
[16] = system: MIA PaCa-2; test: Inhibition of colony formation in human MIA PaCa-2 cells expressing KRAS G12C mutant assessed as reduction in cell number at 30 nM incubated for 14 days in presence of linsitinib by crystal violet staining based analysis; assay type: functional; conditions: time 14.0 day
[17] = system: NCI-H23; test: Antiproliferative activity against human NCI-H23 cells expressing KRAS G12C mutant assessed as relative cell viability at 30 nM incubated for 72 hrs in presence of MK-2206 by CCK-8 assay; assay type: functional; conditions: read-out: Activity
[18] = system: MIA PaCa-2; test: Antiproliferative activity against human MIA PaCa-2 cells expressing KRAS G12C mutant assessed as relative cell viability at 30 nM incubated for 72 hrs in presence of crizotinib by CCK-8 assay; assay type: functional; conditions: read-out: Activity
[19] = system: HepG2; test: Antiproliferative activity against human HepG2 cells expressing KRAS assessed as inhibition of cell growth incubated for 72 hrs by CCK-8 assay; assay type: functional, cell-based; conditions: HepG2, 72 h
[20] = system: MIA PaCa-2; test: Antiproliferative activity against human MIA PaCa-2 cells expressing KRAS G12C mutant assessed as relative cell viability at 30 nM incubated for 72 hrs in presence of daclolisib by CCK-8 assay; assay type: functional; conditions: read-out: Activity
[21] = AUC (0 to t) in ICR mouse at 2 mg/kg, iv measured after 24 hrs by LC-MS/MS analysis; assay type: ADME, organism-based; conditions: in vivo
[22] = system: MIA PaCa-2; test: Antitumor activity against human MIA PaCa-2 cells xenografted in BALB/c nude mouse assessed as tumor growth inhibition at 30 mg/kg, ip measured after 8 days relative to control; assay type: functional; conditions: MIA PaCa-2, 192 h, time 8 day, read-out: TGI
[23] = system: MIA PaCa-2; test: Antiproliferative activity against human MIA PaCa-2 cells expressing KRAS G12C mutant assessed as reduction of cell growth by measuring fold decrease in IC50 incubated for 72 hrs in presence of Linsitinib by CCK-8 assay; assay type: functional

C=CC(=O)N1CCN(c2nc(=O)n(-c3c(C)ccnc3C(C)C)c3nc(-c4c(F)cccc4OCC4CCN(CCCC(=O)N[C@H](C(=O)N5C[C@H](O)C[C@H]5C(=O)NCc5ccc(-c6scnc6C)cc5)C(C)(C)C)CC4)c(F)cc23)[C@@H](C)C1
Activity [1]: 50% | Activity [2]: 1.7% | Activity [3]: 2.66% | viability at 0.03 µM [4]: 0.2% | CI [5]: <1 | viability at 0.03 µM [6]: 0.36% | Activity [7]: 3.48% | CI [8]: <1 | Activity [9]: Non-Toxic | viability at 0.1 µM [10]: 85.9% | viability at 0.03 µM [11]: 0.38% | fold change (FC) [12]: ~9 | CI [13]: <1 | viability at 0.03 µM [14]: 0.36% | Activity [15]: inactive | inhibition [16]: Active | viability at 0.03 µM [17]: 0.44% | viability at 0.03 µM [18]: 0.28% | IC50 [19]: > 10 µM | viability at 0.03 µM [20]: 0.17% | AUC(0-t) at 24 h [21]: 399 ng·h/mL | inhibition in vivo at 30 mg/kg [22]: > 100% | fold change (FC) [23]: ~3
